Assay results reported in ChEMBL document CHEMBL1201862, “PubChem BioAssay data set” (2004).
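Following 48 hours of exposure in 96-well plates, responses at five concentrations were used to interpolate endpoints linearly. At the GI50, growth is halved.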 Active and inactive are the calls of the source. Cut-off read from the data, not from the text of the source: active = GI50 up to about 1.1 µM and inactive = higher.

Tests used:
Assay in all cases: NCI anticancer screen, dose series, 48 h
786-0 = system: 786-0
BT-549 = system: BT-549
CCRF-CEM = system: CCRF-CEM
DU-145 = system: DU-145
EKVX = system: EKVX
HCC 2998 = system: HCC 2998
HT-29 = system: HT-29
IGROV-1 = system: IGROV-1
K562 = system: K562
MOLT-4 = system: MOLT-4
NCI-H522 = system: NCI-H522
OVCAR-4 = system: OVCAR-4
OVCAR-5 = system: OVCAR-5
RPMI-8226 = system: RPMI-8226
SK-MEL-28 = system: SK-MEL-28
SK-MEL-2 = system: SK-MEL-2
U-251 = system: U-251
UACC-257 = system: UACC-257
SK-MEL-5 = system: SK-MEL-5
SR = system: SR

Compound | GI50 (786-0) | GI50 (BT-549) | GI50 (CCRF-CEM) | GI50 (DU-145) | GI50 (EKVX) | GI50 (HCC 2998) | GI50 (HT-29) | GI50 (IGROV-1) | GI50 (K562) | GI50 (MOLT-4) | GI50 (NCI-H522) | GI50 (OVCAR-4) | GI50 (OVCAR-5) | GI50 (RPMI-8226) | GI50 (SK-MEL-28) | GI50 (SK-MEL-2) | GI50 (U-251) | GI50 (UACC-257) | GI50 (SK-MEL-5) | GI50 (SR)
O=C(O)C1CCCCN1CCc1c[nH]c2ccccc12 (stereo not drawn) | > 100 µM (inactive) | > 100 µM (inactive) | > 100 µM (inactive) | > 100 µM (inactive) | > 100 µM (inactive) | > 100 µM (inactive) | > 100 µM (inactive) | > 100 µM (inactive) | > 100 µM (inactive) | > 100 µM (inactive) | > 100 µM (inactive) | > 100 µM (inactive) | > 100 µM (inactive) | > 100 µM (inactive) | > 100 µM (inactive) | > 100 µM (inactive) | > 100 µM (inactive) | > 100 µM (inactive) | – | –
CN(C)/C=N/c1ccc2[nH]c3ccccc3c2c1 | 25.1 µM (inactive) | > 100 µM (inactive) | 30.9 µM (inactive) | > 100 µM (inactive) | 65 µM (inactive) | – | 19.8 µM (inactive) | 43.5 µM (inactive) | 20.4 µM (inactive) | 27.3 µM (inactive) | – | > 100 µM (inactive) | 28.4 µM (inactive) | 22.6 µM (inactive) | 23.3 µM (inactive) | 16.7 µM (inactive) | 28.8 µM (inactive) | 15.9 µM (inactive) | 16.7 µM (inactive) | 12.2 µM (inactive)
CN(C)c1ccc(/C=C(\NC(=O)c2ccccc2)C(=O)NC(CCC(=O)O)C(=O)O)cc1 (stereo not drawn) | > 100 µM (inactive) | > 100 µM (inactive) | > 100 µM (inactive) | > 100 µM (inactive) | > 100 µM (inactive) | > 100 µM (inactive) | > 100 µM (inactive) | > 100 µM (inactive) | > 100 µM (inactive) | > 100 µM (inactive) | > 100 µM (inactive) | > 100 µM (inactive) | > 100 µM (inactive) | > 100 µM (inactive) | > 100 µM (inactive) | > 100 µM (inactive) | > 100 µM (inactive) | > 100 µM (inactive) | > 100 µM (inactive) | –
CCCCCc1cc2cc3c(c(O)c2c(=O)[nH]1)C1(CC3)C(=O)c2c(O)c3c(c(O)c2C1=O)C(=O)C(OC)=CC3=O (stereo not drawn) | 0.7 µM (active) | 1.08 µM (active) | 0.0859 µM (active) | 1.05 µM (active) | 0.916 µM (active) | 1.05 µM (active) | 0.718 µM (active) | 1.28 µM (inactive) | 0.456 µM (active) | 0.56 µM (active) | 0.359 µM (active) | 0.822 µM (active) | 2.98 µM (inactive) | 0.336 µM (active) | 2.01 µM (inactive) | 0.867 µM (active) | 0.601 µM (active) | 0.444 µM (active) | 0.64 µM (active) | –
O=C1C=CC2(C=C1)O[C@H](CCc1ccccc1)[C@@H](CCc1ccccc1)O2 | > 100 µM (inactive) | > 100 µM (inactive) | > 100 µM (inactive) | > 100 µM (inactive) | 24 µM (inactive) | – | > 100 µM (inactive) | 98.9 µM (inactive) | > 100 µM (inactive) | 81.8 µM (inactive) | – | 85.5 µM (inactive) | > 100 µM (inactive) | 82 µM (inactive) | > 100 µM (inactive) | > 100 µM (inactive) | 20.2 µM (inactive) | > 100 µM (inactive) | > 100 µM (inactive) | > 100 µM (inactive)
C=CCOC(=O)CC[N+]1=CCC(c2ccccc2)(c2ccccc2)O1 | > 100 µM (inactive) | > 100 µM (inactive) | – | > 100 µM (inactive) | > 100 µM (inactive) | > 100 µM (inactive) | > 100 µM (inactive) | > 100 µM (inactive) | > 100 µM (inactive) | > 100 µM (inactive) | > 100 µM (inactive) | > 100 µM (inactive) | > 100 µM (inactive) | – | > 100 µM (inactive) | > 100 µM (inactive) | > 100 µM (inactive) | > 100 µM (inactive) | > 100 µM (inactive) | –
[O-][n+]1c2cccc(O)c2[n+]([O-])c2cccc(O)c21 | 30.2 µM (inactive) | 46 µM (inactive) | 5.56 µM (inactive) | > 100 µM (inactive) | 23.8 µM (inactive) | – | > 100 µM (inactive) | 6.53 µM (inactive) | 39.2 µM (inactive) | 3.99 µM (inactive) | 20.4 µM (inactive) | 42.7 µM (inactive) | > 100 µM (inactive) | 18.6 µM (inactive) | – | – | 43.3 µM (inactive) | 37.9 µM (inactive) | 53.5 µM (inactive) | –
N#Cc1c(NC(=O)CCC(=O)O)ccc2ccccc12 | > 100 µM (inactive) | > 100 µM (inactive) | – | > 100 µM (inactive) | > 100 µM (inactive) | – | > 100 µM (inactive) | > 100 µM (inactive) | > 100 µM (inactive) | – | > 100 µM (inactive) | > 100 µM (inactive) | > 100 µM (inactive) | > 100 µM (inactive) | > 100 µM (inactive) | > 100 µM (inactive) | > 100 µM (inactive) | > 100 µM (inactive) | > 100 µM (inactive) | –
Cc1cnc(-n2c(C)nc3cc(Cl)ccc3c2=O)s1 | 24.5 µM (inactive) | 28.4 µM (inactive) | 31.5 µM (inactive) | 25.6 µM (inactive) | 11.1 µM (inactive) | 26.5 µM (inactive) | 32.7 µM (inactive) | 40 µM (inactive) | 31.1 µM (inactive) | 30.8 µM (inactive) | 22 µM (inactive) | 58.5 µM (inactive) | 56.4 µM (inactive) | – | 49.7 µM (inactive) | 25.4 µM (inactive) | 30.5 µM (inactive) | 29.1 µM (inactive) | 16 µM (inactive) | –
O=C(C=P(c1ccccc1)(c1ccccc1)c1ccccc1)c1ccc(-c2cccs2)cc1 | 4.75 µM (inactive) | 20.5 µM (inactive) | 4.56 µM (inactive) | 8.73 µM (inactive) | 2.61 µM (inactive) | 2.83 µM (inactive) | 3.75 µM (inactive) | 7.73 µM (inactive) | 3.59 µM (inactive) | 2.15 µM (inactive) | 3.35 µM (inactive) | 2.36 µM (inactive) | 5 µM (inactive) | 2.25 µM (inactive) | 3.41 µM (inactive) | 1.39 µM (inactive) | 3.85 µM (inactive) | 1.8 µM (inactive) | 2.17 µM (inactive) | –
CN(C)C(=O)C(F)(F)C(c1ccccc1Br)C1C(=O)N(C)C(=O)N(C)C1=O (stereo not drawn) | > 100 µM (inactive) | > 100 µM (inactive) | > 100 µM (inactive) | > 100 µM (inactive) | > 100 µM (inactive) | > 100 µM (inactive) | – | – | > 100 µM (inactive) | – | – | > 100 µM (inactive) | > 100 µM (inactive) | > 100 µM (inactive) | > 100 µM (inactive) | > 100 µM (inactive) | > 100 µM (inactive) | > 100 µM (inactive) | > 100 µM (inactive) | –
